Measured values published in patent US20230095980A1, “Sodium 2-[(4S)-8-fluoro-2-[4-(3-methoxyphenyl)piperazin-1-yl]-3-[2-methoxy-5-(trifluoromethyl)phenyl]-4H-quinazolin-4-yl]acetate and pharmaceutical compositions thereof” (AIC246 AG & Co. KG, priority 2020, published 2023).

How the values were obtained:
[1] = intravenous formulation in neonates; cited from earlier work
[2] = Excipient-free formulation: reconstitution with water for injection and dilution in infusion bags; assay type: physicochemical
Experimental: 0.3164 g of letermovir sodium trihydrate salt was directly weighed into a washed, sterilized and dried 20R glass vial. […] Six vials were prepared accordingly. The vials were stoppered and crimp capped.
14 ml of water for injection were added to each 20R vial containing 280 mg of Letermovir free base resulting in concentration of 20 mg/ml. Water for injection was added after removal of the flip-off disk from the vial by using a 20-ml disposable syringe plus a 20G needle of 40 mm length.
The content of the vial was carefully homogenized by gentle manual rotation. In parallel, 2 empty infusion bags were filled with 288 ml of each parenteral admixture diluents (Ringer's lactate, 0.9% saline solution and 5% dextrose solution, respectively) by using a 50-ml syringe and a Mini-Spike. 12 ml of the content of the vial was withdrawn by using a 20-ml disposable syringe plus a 20G needle of 40 mm length. The total volume of 12 ml was directly injected into the diluent containing infusion bag. After the injection, the content of the bag was carefully homogenized by gentle manual rotation. Two independent preparations of each diluent were used, i.e., in total 6 infusion bags were prepared. Following, the prepared infusion bags were put on storage at room temperature (protected from light) and another sample was analyzed after 24 hours (T24 h).

Row | pH ([2]; other two diluents (0.9% saline solution, 5% dextrose solution)) | pH ([2]; solution reconstituted with Ringer's lactate, no pH adjustment) | Structure (SMILES) | PDE (permissible daily exposure) [1] [mg/day] | precipitation based on visual inspection ([2]; over 24 hours at room temperature, Ringer's lactate, 0.9% saline, 5% dextrose)
1 |  |  | OC[C@@H](O)[C@@H](O)[C@H](O)[C@H](O)CO [Mannitol] | 75 | 
2 | 8.0 | 7.8 | COc1cccc(N2CCN(C3=Nc4c(F)cccc4[C@H](CC(=O)[O-])N3c3cc(C(F)(F)F)ccc3OC)CC2)c1.[Na+] [letermovir sodium trihydrate salt, Sodium 2-[(4S)-8-fluoro-2-[4-(3-methoxyphenyl)piperazin-1-yl]-3-[2-methoxy-5-(trifluoromethyl)phenyl]-4H-quinazolin-4-yl]acetate] |  | None of the reconstituted formulations precipitated
3 |  |  | OC[C@H]1O[C@@H](O[C@H]2[C@H](O)[C@@H](O)C(O)O[C@@H]2CO)[C@H](O)[C@@H](O)[C@H]1O (stereo partly drawn) [Lactose] | 5.7 | 
4 |  |  | OC[C@H]1O[C@H](O[C@H]2O[C@H](CO)[C@@H](O)[C@H](O)[C@H]2O)[C@H](O)[C@@H](O)[C@@H]1O [Trehalose] | 25.8 | 
